For series [1], the system named is Differentiated U937 cells. Briefly: MTT assay: cell viability on exposure to test compounds. The following applies: percentage loss of cell viability vs vehicle; for MTT Assay (Viability) 4 h d-U937: 5% FCS; for MTT Assay (Viability) 24 h d-U937: 10% FCS. Format: cell-based, human. The gist of the method: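 Differentiated U937 cells were pre-incubated with compound for either 4 h in 5% FCS or 24 h in 10% FCS, then given MTT for 1 h. Formazan was dissolved in DMSO and read at 550 nm. Viability loss is expressed as % versus 0.5% DMSO vehicle, so an apparent gain appears as a negative value.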

Series [2] concerns the target T1, p38 MAPKα isoform (MAPK14: Invitrogen) (Homo sapiens, UniProt Q16539).
T1 construct: purchased Invitrogen
The series is described as follows: p38 MAPKα enzyme inhibition assay (FRET, Z-LYTE, via MAPKAP-K2 activation). It is filed as biochemical. As to conditions: 2 hr pre-incubation, ATP 10.0 μM; read-out: Enzyme Inhibition IC50 p38α.

In series [3] the test system is Poly I:C-induced ICAM-1 expression in BEAS2B cells. Briefly: Poly I:C-induced ICAM-1 induction in BEAS2B cells. It is filed as cell-based. The following applies: Homo sapiens, BEAS-2B, poly I:C 1 μg/mL, 18 hr, read-out: PolyI:C/ICAM1 IC50 BEAS2B. In outline: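 Human bronchial epithelial BEAS2B cells were pre-incubated with compound for 2 h, then transfected with poly I:C at 1 μg/mL. Surface ICAM-1 was measured 18 h later by cell-based ELISA (OD450–655), normalised to crystal-violet cell number (OD595). IC50 was taken from the concentration–response curve against vehicle.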

In series [4] the test system is LPS-induced IL-8 release in d-U937 cells. Briefly: LPS-induced IL-8 release in d-U937 cells. Format: cell-based. As to conditions: Homo sapiens, dU937, 0.1 μg/mL LPS, 4 hr. In outline:
(§1)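 U937 cells differentiated with PMA (100 ng/mL, 48–72 hr), pre-incubated with compound 2 hr, then stimulated with 0.1 μg/mL E. coli O111:B4 LPS for 4 hr. Supernatant TNFα and IL-8 measured by sandwich ELISA; REC50 (TNFα) and IC50 (IL-8 inhibition vs vehicle) taken from concentration-response curves.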

The target of series [5] is T2, Recombinant, phosphorylated p38 MAPKγ (MAPK12:Invitrogen) (Homo sapiens, UniProt P53778).
T2 construct: purchased Invitrogen
T2 sequence (P53778 1-367): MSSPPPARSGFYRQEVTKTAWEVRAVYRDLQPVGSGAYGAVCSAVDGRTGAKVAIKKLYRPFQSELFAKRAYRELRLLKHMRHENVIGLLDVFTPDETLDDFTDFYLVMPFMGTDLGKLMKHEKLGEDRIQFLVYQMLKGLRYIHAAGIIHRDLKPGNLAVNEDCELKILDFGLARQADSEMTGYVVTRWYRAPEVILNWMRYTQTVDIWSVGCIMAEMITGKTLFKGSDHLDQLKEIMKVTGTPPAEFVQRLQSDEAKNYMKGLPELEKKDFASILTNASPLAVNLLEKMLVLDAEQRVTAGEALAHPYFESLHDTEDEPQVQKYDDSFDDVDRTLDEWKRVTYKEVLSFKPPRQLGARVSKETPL
Briefly: p38 MAPKγ enzyme inhibition assay (FRET, Z-LYTE). It is filed as biochemical. As to conditions: 2 hr pre-incubation, ATP 100 μM; read-out: Enzyme Inhibition IC50 p38γ.
Experimental: The enzyme inhibitory activities of compounds disclosed herein were determined by fluorescence resonance energy transfer (FRET) using synthetic peptides labelled with both donor and acceptor fluorophores (Z-LYTE, Invitrogen Ltd., Paisley, UK). Recombinant, phosphorylated p38 MAPKγ (MAPK12:Invitrogen) was diluted in HEPES buffer, mixed with the test compound at the desired final concentrations and incubated for 2 hr at RT. The FRET peptide (2 μM) and ATP (100 μM) were added to the enzyme/compound mixture and incubated for 1 hr. Development reagent (protease) was added for 1 hr prior to detection in a fluorescence microplate reader (Varioskan® Flash, ThermoFisher Scientific). The site-specific protease cleaves non-phosphorylated peptide only and eliminates the FRET signal. Phosphorylation levels of each reaction were calculated using the ratio of coumarin emission (donor) over fluorescein emission (acceptor) for which high ratios indicate high phosphorylation and low ratios indicate low phosphorylation levels.

The subject of series [6] is LPS-induced TNFα release in THP-1 cells. The series is described as follows: LPS-induced TNFα release in THP-1 cells. As to conditions: Homo sapiens, 3 μg/mL LPS, 4 hr. Format: cell-based. The gist of the method: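 Human monocytic cells were stimulated with 3 μg/mL E. coli LPS for 4 hr. Supernatant TNFα was measured by sandwich ELISA. Inhibition was taken relative to vehicle control, and IC50 derived from the concentration-response curve.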

For series [7], the system named is LPS-induced neutrophil accumulation in Balb/c mice. The series is described as follows: LPS-induced neutrophil accumulation in mice. Format: in vivo. The procedure: LPS-Induced Neutrophil Accumulation in Mice
Non-fasted Balb/c mice were dosed by the intra tracheal route with either vehicle, or the test substance at the indicated times (within the range 2-12 hr) before stimulation of the inflammatory response by application of an LPS challenge. At T=0, mice were placed into an exposure chamber and exposed to LPS. After a further 8 hr the animals were anesthetized, their tracheas cannulated and BALF extracted by infusing and then withdrawing from their lungs 1.0 mL of PBS via the tracheal catheter. Total and differential white cell counts in the BALF samples were measured using a Neubaur haemocytometer. Cytospin smears of the BALF samples were prepared by centrifugation at 200 rpm for 5 min at RT and stained using a DiffQuik stain system (Dade Behring). Cells were counted using oil immersion microscopy.

Series [8] concerns LPS-induced TNFα release in d-U937 cells. The series is described as follows: LPS-induced TNFα release in d-U937 cells. It is filed as cell-based. The following applies: Homo sapiens, dU937, 4 h; read-out: LPS/TNFα REC50 d-U937. The gist of the method:
as §1

The mark [9] stands for this setting: 0.2 mg/mL intra tracheal, 8 h pre-dose before LPS.
Where [10] appears, read: 0.2 mg/mL intra tracheal, 2 hr pre-dose before LPS.
[11] abbreviates: 0.2 mg/mL intra tracheal, 12 h pre-dose before LPS.

SMILES strings stand for the structures. Marks after values point to notes of the source that are not given here.

T1 sequence (Q16539 whole entry, canonical isoform): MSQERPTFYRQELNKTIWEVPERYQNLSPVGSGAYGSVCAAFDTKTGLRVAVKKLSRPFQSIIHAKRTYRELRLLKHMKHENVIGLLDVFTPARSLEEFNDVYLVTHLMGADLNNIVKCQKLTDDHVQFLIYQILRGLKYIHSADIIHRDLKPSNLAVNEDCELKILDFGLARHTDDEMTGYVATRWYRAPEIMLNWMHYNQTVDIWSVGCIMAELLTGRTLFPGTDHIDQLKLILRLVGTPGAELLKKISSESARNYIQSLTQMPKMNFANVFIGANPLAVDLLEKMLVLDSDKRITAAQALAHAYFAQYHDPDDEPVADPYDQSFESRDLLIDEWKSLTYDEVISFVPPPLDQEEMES

Take `CN(C)C(=O)Nc1cc(Oc2ccc(NC(=O)Nc3cc(C(C)(C)C)nn3-c3ccc(O)cc3)c3ccccc23)ccn1` [Example 34, 3-(4-(4-(3-(3-tert-butyl-1-(4-hydroxyphenyl)-1H-pyrazol-5-yl)ureido)naphthalen-1-yloxy)pyridin-2-yl)-1,1-dimethylurea]: the “MTT Assay (Viability) 4 h d-U937” value in series [1] (1 μg/mL) is given as −25.8%. In series [1] (1 μg/mL), the “MTT Assay (Viability) 24 h d-U937” value was −43.4%. The IC50 in series [2] stood at 0.002 µM; in series [3] it was 0.0044 µM; in series [4], 0.0019 µM; in series [5], 0.0893 µM; in series [6], 0.0015 µM. Further, the “% inhibition of Influx” value in series [7] (setting [9]) is 14%. The “Neutrophil numbers in BAL” value in series [7] (setting [9]) is given as 12.0 ± 1.7 × 10^5/mL. Moreover, the “inhibitory effects versus neutrophil accumulation into the BALF (in words)” value in series [7] (dosed 8 hr prior to LPS challenge) is reported as “inhibitory effects”.
As for `CCNC(=O)Nc1cc(C(=O)c2ccc(NC(=O)Nc3cc(C(C)(C)C)nn3-c3ccc(C)cc3)c3ccccc23)ccn1` [Example 67, 1-(3-tert-butyl-1-p-tolyl-1H-pyrazol-5-yl)-3-(4-(2-(3-ethylureido)isonicotinoyl)naphthalen-1-yl)urea], the “MTT Assay (Viability) 4 h d-U937” value in series [1] (10 μg/mL) is listed as −9.9^b %. Further, the “MTT Assay (Viability) 24 h d-U937” value in series [1] (10 μg/mL) is 8.8^b %. In addition, the IC50 stood at 0.0188 µM in series [2]; 0.0138 µM in series [3]; 0.0219 µM in series [4]; 0.443 µM in series [5]; 0.0065 µM in series [6]. For the same compound, the EC50 in series [8] came to 0.0176 µM. For the same compound, the “% inhibition (neutrophil numbers in BAL)” value in series [7] (setting [10]) is reported as 40%; in series [7] (setting [11]) it was 20%. Also, the results for the “Neutrophil numbers in BAL” value in series [7] (setting [10]) and in series [7] (setting [11]) were 10.5 ± 1.5 × 10^5/ml and 14.2 ± 1.7 × 10^5/ml, respectively. The “inhibition of neutrophil accumulation into the BALF (in words)” value in series [7] (administered 2 and 12 hr prior to LPS challenge) was “marked and long-lasting inhibition”.
`COCC(=O)Nc1cc(Oc2ccc(NC(=O)Nc3cc(-c4ccccc4)nn3-c3ccccc3)c3ccccc23)ccn1` [Example 19, N-(4-((4-(3-(1,3-Diphenyl-1H-pyrazol-5-yl)ureido)naphthalen-1-yl)oxy)pyridin-2-yl)-2-methoxyacetamide]: the “MTT Assay (Viability) 4 h d-U937” value in series [1] (1 μg/mL) is −1.7%. Further, in series [1] (1 μg/mL), the “MTT Assay (Viability) 24 h d-U937” value was −11.7%. The IC50 amounted to 0.0004 µM in series [2]; 0.369 µM in series [3]; 0.0245 µM in series [4]; 0.261 µM in series [5]; 0.0018 µM in series [6]. The EC50 in series [8] came out at 0.0081 µM.
For the compound `COCC(=O)Nc1cc(Oc2ccc(NC(=O)Nc3cc(C(C)(C)C)nn3-c3ccc(C(=O)OC)cc3)c3ccccc23)ccn1` [Example 43, methyl 4-(3-tert-butyl-5-(3-(4-((2-(2-methoxyacetamido)pyridin-4-yl)oxy)naphthalen-1-yl)ureido)-1H-pyrazol-1-yl)benzoate], the “MTT Assay (Viability) 4 h d-U937” value in series [1] (1 μg/mL) is −12.8%. The “MTT Assay (Viability) 24 h d-U937” value in series [1] (1 μg/mL) was 0.1%. In addition, the IC50 in series [2] is 0.0083 µM; in series [3], 0.0017 µM; in series [4], 0.0089 µM; in series [5], 0.192 µM; in series [6] it was 0.002 µM. Also, the EC50 in series [8] amounted to 0.0016 µM.
As to `COCC(=O)Nc1cc(COc2ccc(NC(=O)Nc3cc(C(C)(C)C)nn3-c3ccc(OC)cc3)c(C)c2C)ccn1` [Example 59, N-(4-((4-(3-(3-tert-butyl-1-(4-methoxyphenyl)-1H-pyrazol-5-yl)ureido)-2,3-dimethylphenoxy)methyl)pyridin-2-yl)-2-methoxy acetamide], the “MTT Assay (Viability) 4 h d-U937” value in series [1] (1 μg/mL) is 11.3%. Moreover, the “MTT Assay (Viability) 24 h d-U937” value in series [1] (1 μg/mL) was 0.9%. The IC50 in series [2] turned out to be 0.0127 µM; in series [3], 0.277 µM; in series [4], 0.165 µM; in series [5], 4.15 µM; in series [6] it was 0.241 µM. Moreover, in series [8], the EC50 is 0.104 µM.
Turning to `COCC(=O)Nc1cc(Oc2ccc(NC(=O)Nc3cc(C45CC6CC(CC(C6)C4)C5)nn3-c3ccc(C)cc3)c3ccccc23)ccn1` [Example 27, N-(4-(4-(3-(3-(adamantan-1-yl)-1-p-tolyl-1H-pyrazol-5-yl)ureido)naphthalen-1-yloxy)pyridin-2-yl)-2-methoxyacetamide], in series [1] (1 μg/mL), the “MTT Assay (Viability) 4 h d-U937” value is on record as −4.6%. Besides, the “MTT Assay (Viability) 24 h d-U937” value in series [1] (1 μg/mL) is −23.9%. The IC50 turned out to be 0.0743 µM in series [2]; 0.284 µM in series [3]; 3.52 µM in series [4]; 1.97 µM in series [5]; 0.0152 µM in series [6]. The EC50 in series [8] is 0.0188 µM.
As for `COCC(=O)Nc1cc(Oc2ccc(NC(=O)Nc3cc(C(C)(C)C)nn3-c3ccc(OC(F)(F)F)cc3)c3ccccc23)ccn1` [Example 41, N-(4-(4-(3-(3-tert-butyl-1-(4-(trifluoromethoxy)phenyl)-1H-pyrazol-5-yl)ureido)naphthalen-1-yloxy)pyridin-2-yl)-2-methoxyacetamide], the “MTT Assay (Viability) 4 h d-U937” value in series [1] (1 μg/mL) was −26.2%. Also, the “MTT Assay (Viability) 24 h d-U937” value in series [1] (1 μg/mL) is 1.3%. The IC50 in series [2] amounted to 0.0261 µM; in series [3], 0.0214 µM; in series [4] it was 0.0104 µM; in series [5] it was 0.875 µM; in series [6] it was 0.0076 µM. For the same compound, the EC50 in series [8] is 0.0152 µM.
As for `COCC(=O)Nc1cc(Oc2ccc(NC(=O)Nc3cc(C4CC4)nn3-c3ccc(C)cc3)c3ccccc23)ccn1` [Example 24, N-(4-((4-(3-(3-cyclopropyl-1-p-tolyl-1H-pyrazol-5-yl)ureido)naphthalen-1-yl)oxy)pyridin-2-yl)-2-methoxyacetamide], the “MTT Assay (Viability) 4 h d-U937” value in series [1] (1 μg/mL) is recorded as −10.8%. In addition, the “MTT Assay (Viability) 24 h d-U937” value in series [1] (1 μg/mL) is recorded as −7.4%. Further, the IC50 in series [2] is 0.0015 µM; in series [3] it was 0.11 µM; in series [4], 0.0356 µM; in series [5], 1.34 µM; in series [6], 0.0118 µM. Moreover, the EC50 in series [8] was determined as 0.0033 µM.
Turning to `CC(C)(C)c1cc(NC(=O)Nc2ccc(Oc3ccnc(NC(=O)N4CCOCC4)c3)c3ccccc23)n(-c2ccc(O)c(Cl)c2)n1` [Example 12, N-(4-((4-(3-(3-(tert-Butyl)-1-(3-chloro-4-hydroxyphenyl)-1H-pyrazol-5-yl)ureido)naphthalen-1-yl)oxy)pyridin-2-yl)morpholine-4-carboxamide], the “MTT Assay (Viability) 4 h d-U937” value in series [1] (1 μg/mL) is given as −6.2%. The “MTT Assay (Viability) 24 h d-U937” value in series [1] (1 μg/mL) is reported as −42.9%. The IC50 came out at 0.0027 µM in series [2]; 0.0032 µM in series [3]; 0.0084 µM in series [4]; 0.147 µM in series [5]; 0.0033 µM in series [6]. Besides, the EC50 in series [8] was 0.0004 µM.
